In US8575135B2 (Gilead Sciences, Inc., priority 2011, dated 2013):
Read-outs that look alike come from different tables or passages of the source.

How the values were obtained:
Assay in all cases: microbe, parasite or virus in culture
Settings in all cases: Hepatitis C virus
[1] = test system: 1a Pi-Rluc replicon with Q30R in genotype 1a NS5A; assay type: cell-based, HCV
Experimental: Antiviral potency (EC50) was determined using a Renilla luciferase (RLuc)-based HCV replicon reporter assay. […] To perform the assay for genotype 2a (with M31 present in NS5A) or 2b, NS5A chimeric genotype 2a JFH-1 replicons that encodes a RLuc-Neo reporter and either genotype 2a J6 strain NS5A gene or genotype 2b MD2b-1 strain NS5A gene (both with M31 present) respectively, were either transiently transfected (t) into Huh-Lunet cells or were established as stably replicating replicon cells (s) is provided. Either cells were dispensed into 384-well plates for EC50 assays. To perform the assay for genotype 3 and 4, NS5A chimeric genotype 1b Con1 replicons that encodes a Pi-RLuc reporter and either genotype 3a S52 strain NS5A gene or genotype 4a ED43 strain NS5A gene respectively, were transiently transfected (t) into Huh-Lunet cells, which were subsequently dispensed into 384-well plates. Compounds were dissolved in DMSO at a concentration of 10 mM and diluted in DMSO either manually or using an automated pipeting instrument. Serially 3-fold diluted compounds were either manually mixed with cell culture media and added to the seeded cells or directly added to the cells using an automated instrument. […] 72 hours later, cells were lysed and Renilla luciferase activity quantified as recommended by the manufacturer (Promega-Madison, Wis.). Non-linear regression was performed to calculate EC50 values.
To determine the antiviral potency (EC50) against resistance mutants, resistance mutations, including M28T, Q30R, Q30H, L31M, and Y93C in genotype 1a NS5A and Y93H in genotype 1b NS5A, were introduced individually into either 1a Pi-Rluc or 1b Pi-Rluc replicons by site directed mutagenesis. Replicon RNA of each resistant mutant was transiently transfected into Huh-7-derived cured-51 cells and antiviral potency was determined on these transfected cells as described above.

[2] = test system: stable HCV 2a JFH-1 Rluc replicon cells (L31 present in NS5A); assay type: cell-based
[3] = test system: stable HCV 1a RLuc replicon cells (genotype 1a H77 replicon); assay type: cell-based
[4] = test system: NS5A chimeric genotype 1b Con1 replicon with genotype 4a ED43 strain NS5A gene; assay type: cell-based, HCV
[5] = test system: NS5A chimeric genotype 1b Con1 replicon with genotype 3a S52 strain NS5A gene; assay type: cell-based, HCV
Outline: (§1)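 Con1-based 3a and 4a chimeras carried a Pi-RLuc reporter and were transiently transfected into Huh-Lunet cells; the JFH-1-based 2b chimera (RLuc-Neo) was used transiently or as stable replicon cells.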

[6] = test system: NS5A chimeric genotype 2a JFH-1 replicon with genotype 2a J6 strain NS5A gene (M31 present); assay type: cell-based, HCV
[7] = test system: NS5A chimeric genotype 2a JFH-1 replicon with genotype 2b MD2b-1 strain NS5A gene (M31 present); assay type: cell-based, HCV
Outline: as §1

Row | Structure (SMILES) | EC50 ([1]; read-out: 1a Q30R) [nM] | EC50 ([1]; read-out: 1a Q30R (nM)) [nM] | EC50 ([2]; read-out: 2a JFH) [nM] | EC50 ([2]; read-out: 2a JFH (nM)) [nM] | EC50 ([3]; read-out: 1a) [nM] | EC50 ([3]; read-out: 1a (nM)) [nM] | EC50 ([4]; read-out: 4a) [nM] | EC50 ([4]; read-out: 4a (s) (nM)) [nM] | EC50 ([4]; read-out: 4a (t) (nM)) [nM] | EC50 ([5]; read-out: 3a) [nM] | EC50 ([5]; read-out: 3a (nM)) [nM] | EC50 ([6]; read-out: 2a J6) [nM] | EC50 ([6]; read-out: 2a J6 (s) (nM)) [nM] | EC50 ([6]; read-out: 2a Jb (t) (nM)) [nM] | EC50 ([7]; read-out: 2b) [nM] | EC50 ([7]; read-out: 2b (s) (nM)) [nM] | EC50 ([7]; read-out: 2b (t) (nM)) [nM]
1 | COC(=O)N[C@H](C(=O)N1CCC[C@H]1c1nc2ccc3cc4c(cc3c2[nH]1)OCc1cc(-c2cnc([C@@H]3CCCN3C(=O)[C@H](NC(=O)C3CC3)c3ccccc3)[nH]2)ccc1-4)C(C)C [Compound 498] | < 1 | 0.04 | < 1 | 0.004 | < 1 | 0.03 | < 1 | 0.004 | 0.011 | < 1 | 0.005 | < 1 | 0.039 | 0.012 | < 1 | 0.013 | 0.01
2 | COC(=O)N[C@H](C(=O)N1CCC[C@H]1c1ncc(-c2ccc3c(c2)COc2cc4c(ccc5nc([C@@H]6C[C@H](C)CN6C(=O)[C@@H](NC(=O)OC)C(C)C)[nH]c54)cc2-3)[nH]1)C(C)C [Compound 526] | < 1 | 0.095 | < 1 | 0.007 | < 1 | 0.011 | < 1 | 0.011 | 0.011 | < 1 | 0.018 | < 1 | 1.64 | 0.443 | < 1 | 0.404 | 0.132
3 | COC(=O)N[C@H](C(=O)N1[C@@H]2C[C@@H]2C[C@H]1c1nc2ccc3cc4c(cc3c2[nH]1)OCc1cc(-c2cnc([C@@H]3CCCN3C(=O)[C@H](NC(=O)OC)c3ccccc3)[nH]2)ccc1-4)C(C)C [Compound 536] | < 1 | 0.048 | < 1 | 0.004 | < 1 | 0.008 | < 1 | 0.01 | 0.005 | < 1 | 0.009 | < 1 | 0.154 | 0.04 | < 1 | 0.037 | 0.011
4 | COC(=O)N[C@H](C(=O)N1CCC[C@H]1c1ncc(-c2ccc3c(c2)COc2cc4c(ccc5nc([C@@H]6CCCN6C(=O)[C@H](NC(=O)OC)c6ccccc6)[nH]c54)cc2-3)[nH]1)[C@@H](C)OC [Compound 588] | < 1 | 0.087 | < 1 | 0.004 | < 1 | 0.012 | < 1 |  | 0.019 | < 1 | 0.027 | < 1 | 0.14 | 0.038 | < 1 | 0.017 | 0.012
5 | COC(=O)N[C@H](C(=O)N1[C@@H](C)CC[C@H]1c1ncc(-c2ccc3c(c2)COc2cc4c(ccc5nc([C@@H]6CCCN6C(=O)[C@@H](NC(=O)OC)[C@@H](C)OC)[nH]c54)cc2-3)[nH]1)C(C)C [Compound 603] | < 1 | 0.146 | < 1 | 0.007 | < 1 | 0.009 | < 1 | 0.022 |  | < 1 | 0.015 | < 1 |  | 0.194 | < 1 | 0.088 | 0.067
6 | COC[C@H]1C[C@@H](c2nc3ccc4cc5c(cc4c3[nH]2)OCc2cc(-c3cnc([C@@H]4CCCN4C(=O)[C@H](NC(=O)OC)c4ccccc4)[nH]3)ccc2-5)N(C(=O)[C@@H](NC(=O)OC)C(C)C)C1 [Example MM, methyl {(1R)-2-[(2S)-2-(5-{2-[(2S,4S)-1-{(2S)-2-[(methoxycarbonyl)amino]-3-methylbutanoyl}-4-(methoxymethyl)pyrrolidin-2-yl]-1,11-dihydroisochromeno[4′,3′:6,7]naphtho[1,2-d]imidazol-9-yl}-1H-imidazol-2-yl)pyrrolidin-1-yl]-2-oxo-1-phenylethyl}carbamate] | < 1 | 0.044 | < 1 | 0.007 | < 1 | 0.022 | < 1 | 0.016 | 0.017 | < 1 | 0.02 | < 1 | 0.064 | 0.018 | < 1 | 0.042 | 0.015
7 | COC[C@@H]1C[C@@H](c2nc3ccc4cc5c(cc4c3[nH]2)OCc2cc(-c3cnc([C@@H]4CCCN4C(=O)[C@@H](NC(=O)OC)C(C)C)[nH]3)ccc2-5)N(C(=O)[C@H](NC(=O)OC)c2ccccc2)C1 [Example MQ, methyl{(1R)-2-[(2S,4R)-2-(9-{2-[(2S)-1-{(2S)-2-[(methoxycarbonyl)amino]-3-methylbutanoyl}pyrrolidin-2-yl)-1H-imidazol-5-yl]-1,11-dihydroisochromeno[4′,3′:6,7]naphtho[1,2-d]imidazol-2-yl}-4-(methoxymethyl)pyrrolidin-1-yl]-2-oxo-phenylethyl}carbamate] | < 1 | 0.023 | < 1 | 0.004 | < 1 | 0.008 | < 1 |  | 0.011 | < 1 | 0.016 | < 1 | 0.095 | 0.017 | < 1 | 0.023 | 0.009
8 | COC[C@H]1C[C@@H](c2nc3c([nH]2)-c2cc4c(cc2CC3)-c2ccc(-c3cnc([C@@H]5CCCN5C(=O)[C@@H](NC(=O)OC)C(C)C)[nH]3)cc2CO4)N(C(=O)[C@H](NC(=O)OC)c2ccccc2)C1 [Example MR, methyl{(1R)-2-[(2S,4S)-2-(9-{2-[(2S)-1-{(2S)-2-[(methoxycarbonyl)amino]-3-methylbutanoyl}pyrrolidin-2-yl)-1H-imidazol-5-yl]-1,11-dihydroisochromeno[4′,3′:6,7]-4,5-dihydro-naphtho[1,2-d]imidazol-2-yl}-(methoxymethyl)pyrrolidin-1-yl]-2-oxo-1-phenylethyl}carbamate] | < 1 | 0.128 | < 1 | 0.017 | < 1 | 0.028 | < 1 |  | 0.045 | < 1 | 0.078 | < 1 | 0.176 | 0.079 | < 1 | 0.053 | 0.039
9 | COC[C@H]1C[C@@H](c2ncc(-c3ccc4c(c3)COc3cc5c(ccc6nc([C@@H]7CCCN7C(=O)[C@@H](NC(=O)OC)C(C)C)[nH]c65)cc3-4)[nH]2)N(C(=O)[C@H](NC(=O)OC)c2ccccc2)C1 [Example MU, methyl{(1R)-2-[(2S,4S)-2-(5-{2-[(2S)-1-{(2S)-2-[(methoxycarbonyl)amino]-3-methylbutanoyl}-pyrrolidin-2-yl]-1,11-dihydroisochromeno[4′,3′:6,7]naphtho[1,2-d]imidazol-9-yl}-1H-imidazol-2-yl)-4-(methoxymethyl)pyrrolidin-1-yl]-2-oxo-1-phenylethyl}carbamate] | < 1 | 0.023 | < 1 | 0.004 | < 1 | 0.008 | < 1 |  | 0.011 | < 1 | 0.017 | < 1 | 0.046 | 0.013 | < 1 | 0.025 | 0.009
